Entries after “also recorded” stand apart in the source; their conditions may differ.
Experiments:
[1] = system: SREBP1, SREBP2, INSIG1, HMGCR, LDLR mRNA; assay: qRT-PCR of cholesterol biosynthesis genes in PDAC cell lines; format: cell-based, human; details: qRT-PCR 18 hours post-treatment; relative to actin
Description: (§1) Measurement of 2-deoxy-D-glucose uptake shown on the y-axis relative to control by PDAC cell lines (MIAPaCa2, left; PANC-1, middle; AsPC1, right) treated with DMSO (C), pimozide (P) or haloperidol (H) (FIG. 10A). Abundance of free cholesterol, as measured by staining with filipin, after treatment with haloperidol (H) or pimozide (P) in PDAC cell lines (MIAPaCa2, left; PANC-1, middle; AsPC1, right) (FIG. 10B top). Representative micrographs of filipin-labelled cholesterol. PDAC (MIAPaCa2, top; PANC-1, middle; AsPC1, bottom) cells were seeded for 24 hours and treated with 10 μM haloperidol (H) or pimozide (P) or DMSO for 18 hours (FIG. 10B bottom). Red-fluorescence represents propidium iodide (PI)-stained nuclei and blue-fluorescence represents filipin-stained cholesterol. mRNA levels of genes relative to R-actin shown on the y-axis involved in cholesterol biosynthesis (from left to right: SREBP1, SREBP2, INSIG1, HMGCR, LDLR) measured by qRT-PCR 18 hours post-treatment with DMSO (C), haloperidol (H) or pimozide (P) in three PDAC cell lines (MIAPaCa2, top; PANC-1, middle; AsPC1, bottom) (FIG. 10C).
For mice xenograft tissue samples and cultured cells, the miRNeasy kit (Qiagen, Valencia, Calif.) was used to extract total RNA. […] Quantification values were calculated according to a standard curve method created from a dilution series. […]

MIAPaCa-2 cells = assay: Orthotopic pancreatic tumor mouse model treated with DRD2 antagonists; format: in vivo, mice; details: compared to vehicle
Protocol: Two million MIAPaCa-2 cells were resuspended in 10 μL Matrigel (BD Biosciences, San Jose, Calif.) were orthotopically implanted into the tail of the pancreas of 6-week-old Nod scid gamma animals (Jackson Labs, Bar Harbor, Me.) (day 1). When tumors were palpable (day 27), mice were randomized into 2 groups (n=7 in control group and n=9 in haloperidol group) and injected intraperitoneally with either haloperidol (10 mg/kg) or solvent (dimethylsulfoxide [DMSO] control group) for 12 days. The experiment was terminated when control mice appeared moribund. Weight of the animal and final tumor weight and volume were measured.

[2] = system: Fibroblast (non-cancer cells); assay: Sulforhodamine B (SRB) cytotoxicity assay on fibroblasts; format: cell-based, human; details: increasing concentration, 72 h
Protocol: PANC-1, CFPAC-1, CAPAN-1, MIAPaCa-2, BXPC-3 and fibroblast cells were seeded for 24 h and were exposed to increasing concentration of Pimozide and vehicle for 72 h (FIG. 3A). The same procedure was followed for treatment of cancer cell lines with L741 (FIG. 3B). Cell viability was characterized using a SRB assay. Values are the mean+/−SD of six independent experiments.
Five pancreatic ductal cancer cell lines with various degree of differentiation were obtained from American Type Culture Collection (Rockville, USA) and Normal Human Dermal Fibroblasts (NHDF) obtained from PromoCell. BXPC-3 (moderately differentiated) as well as poorly differentiated human pancreatic cancer cell lines, PANC-1 and MIAPaCa-2, have been established from primary tumor. AsPC-1, CAPAN-1 and CFPAC-1 which represent well differentiated cell lines was isolated from ascites and liver metastasis of pancreas adenocarcinoma. All cell lines contain mutation in P53 whereas K-ras mutation reported in all with the exception of BxPc3. BRCA2 mutation just reported in CAPAN-1 cells.
Sulforhodamine B sodium salt (sigma) was used to assess cell viability and IC50 determination of pancreatic cancer cells. […] Cell viability was specified by using plate reader (TECAN) with measuring of absorbance at 570 and 650 nm (background) in treated or untreated 96 well plate.

PANC-1 cells = assay: Wound healing (scratching) assay for cell migration; format: cell-based, human; details: PANC-1, increasing concentrations, 10 h
Protocol: PANC-1 cells were plated in the chamber were already attached in 12 well plate and allowed to grow for 24 h. Then, a wound was made in the confluent monolayer by removing the chamber. Cells were exposed to increasing concentration of Pimozide (FIG. 6A) or L741 (FIG. 6B) and vehicle for 10 h. Wound gap closure was measured for each drug concentration by comparing the gap at time 0 h to the one at the time 10 h when the gap closed in negative control and normalized to untreated condition.
PANC-1 cells were seeded into the 35 mm-dish culture-silicon Insert frames from Ibidi where already attached to the 6 well culture plate. When 96-98% confluency was achieved, the insert frames were removed using sterile forceps to reach cell free gap. To create a reference point for subsequent measurements, three different part of the gap was marked on the underside of the plastic. Floating cells and cell debris were washed using PBS, relative culture medium was added to each wells and migration distance was photographed using a Zeiss Axiovert 24 light microscope at zero time in the marked areas. Afterward, the wells were treated by addition of DMSO as control and different increasing concentration of Pim and L741. Plates were then placed into the incubator and the cells were allowed to migrate until the time when the gap for the […] closed (t time). Images were taken from the marked areas again. This assay was performed employing various concentrations of drugs at which maximum 5% viability inhibition was observed after 10 h treatment.

[3] = system: MIAPaCa-2, PANC-1 and AsPC-1 cells; assay: Glucose uptake measurement (labelled 2-DG) in PDAC cell lines; format: cell-based, human; details: all three cell lines; relative to DMSO control
Description: as §1
The induction effect of pimozide or haloperidol on labeled 2-DG uptake in cancer cells were determined from measurement of the fluorescence intensity of cell lysates. […]

Compound: O=c1[nH]c2ccccc2n1C1CCN(CCCC(c2ccc(F)cc2)c2ccc(F)cc2)CC1 [pimozide]
- expression of genes involved in lipogenesis / cholesterol biosynthesis [1]: inducing expression of genes involved in lipogenesis
- metastatic dissemination (MIAPaCa-2 cells): reduces tumor volume, metastasis
- tumor volume (MIAPaCa-2 cells; haloperidol 10 mg/kg intraperitoneally for 12 days): reduces tumor volume
- cell viability of fibroblasts versus cancer cells [2]: not as much to Fibroblast
- tumor cell migration (wound gap closure) (PANC-1 cells): tumor cell migration was affected
- tumor cell migration (wound gap closure) (PANC-1 cells; listed as Pimozide): dose dependent inhibitory effect
- glucose uptake (intracellular labelled 2-deoxy-D-glucose) [3]: elevated uptake of glucose; also recorded: enhanced glucose and cholesterol uptake
